Where a SMILES comes first, the peptide text is derived from it. The star is where a group is joined. Palmitoyl = CCCCCCCCCCCCCCCC(=O)*
How the values were obtained:
IL-12 = assay: DENV2 infection in AG129 mice: plasma IL-12 (ELISA); format: in vivo; conditions: 10 mg/kg I.P, b.i.d; n = 9; vs vehicle control
Experimental: Administration of compounds and vehicle to animals started twenty four hours before infection (Day −1). Animals were treated daily (From Day-1 to day 4) as per the experimental design shown below in table 3.1.5. Animals were monitored for general clinical signs, morbidity and mortality. Body weights were measured daily.
Cytokine levels (TNF alpha, IL-6 and IL-12) in plasma samples were measured using Enzyme-Linked Immunosorbent Assay (ELISA). Mouse TNF alpha ELISA Kit (Abcam: ab208348), Mouse IL-6 ELISA Kit (Abcam: ab100712), and Mouse IL-12 p40+IL-12 p70 ELISA Kit (Abcam: ab100699) were used to estimate TNF alpha, IL-6 and IL-12, respectively. The assays were performed according to the manufacturer's instructions and was analysed on a TECAN-NanoQuant Plate™ system.
The Mean±SD Log10PFU/ml, relative Mean±SD spleen weight, Mean±SD biomarker concentrations were estimated in each group. Significant differences between group means and control were analyzed by one-way ANOVA, followed by a Dunnett's multiple comparison test, using GraphPad Prism 5 at 95% confidence levels. A p value of <0.05 was considered as significant.

[1] = Cytotoxicity (method not described); format: cell-based
human Thrombin = human Thrombin (Homo sapiens, UniProt P00734); assay: Selectivity screening, human serine protease thrombin; format: biochemical; conditions: at 5 μM; read-out: inhibition of human Thrombin

SMILES | Plasma concentration of IL-12 in mouse plasma after treatment (IL-12) | cytotoxicity [1] | EC50 (ZIKV) | inhibition at 5 µM (human Thrombin)
CCCCCCCCCCCCCCCC(=O)N[C@@H](CCCCN)CC(=O)N[C@@H](C)C(=O)N[C@@H](C)CC(=O)N[C@H](CCCCN)C(N)=O (stereo in doubt) [compound 113] | 81.79 ± 14.30 | minimal cytotoxicity | ≤ 10 µM | 
CCCCCCCCCCCCCCCC(=O)N[C@@H](CCCNC(=N)N)C(=O)N[C@@H](CCC(N)=O)C(=O)N[C@@H](Cc1ccccc1)C(N)=O [compound 43] (Palmitoyl-Arg-Gln-Phe-NH2) |  |  |  | < 5%

Source: patent US20250059231A1, “Protease inhibitors” (priority 2021, published 2025)
